Ends that are not written are not given here.

In one test the test system is WKY rats on a high salt diet. Nature of the test: Effect of VIP fragment treatment on regression of existing myocardial fibrosis. Format: in vivo, rat. The settings on record: 18 week old WKY rats after 4 weeks high salt diet and infusion 5 pmol/kg/min vs untreated 14 week old rats (zero time), preliminary results, FIG. 2. The method, then: To determine whether VIP (6-16) (SEQ ID NO: 72), VIP(6-20) (SEQ ID NO: 76) and VIP(6-24) (SEQ ID NO: 80) infusion caused regression of existing fibrosis as well as prevented progression of fibrosis two groups of studies were performed. The degree of myocardial fibrosis in untreated 14 week old WKY rats was compared with the degree of fibrosis in 18 week old WKY rats after 4 weeks treatment with a high salt diet or a high salt diet plus L-NAME (10 mg/kg/day) and either VIP (6-16) (SEQ ID NO: 72), VIP(6-20) (SEQ ID NO: 76) and VIP(6-24) (SEQ ID NO: 80) (5 pmol/kg/min) or vehicle control infusion (see FIG. 2)
The regression of fibrosis may be due to either reduction in collagen formation or enhancement of its degradation.
Take FTDNYTRLRKQ [VIP(6-16)]: the “regression of myocardial fibrosis” value is listed as “regression of myocardial fibrosis”.

In another test the test system is Spontaneous Hypertensive Rats (SHR). Nature of the test: Effect of VIP fragment treatment on blood pressure (tail cuff plethysmography) in animal model of hypertension. It counts as in vivo, rat. The settings on record: SHR on 2.2% salt diet for 4 weeks, peptide infused at 5 pmol/kg/min for 4 weeks, FIGS. 6-9. The text has this: To determine whether VIP and fragments were effective in controlling blood pressure, Spontaneous Hypertensive Rats (SHR) were acclimated to blood pressure measurement by tail cuff plethysmography and then they were placed on a 2.2% salt diet for 4 weeks.
The rats were randomized to Control (Hartman's Solution) vehicle infusion, VIP(1-28) ([…] (SEQ ID NO: 1), VIP(4-10) (Ala-Val-Phe-Thr-Asp-Asn-Tyr) (SEQ ID NO: 29), VIP(4-12) (Ala-Val-Phe-Thr-Asp-Asn-Tyr-Thr-Arg) (SEQ ID NO: 31), VIP(4-16) (Ala-Val-Phe-Thr-Asp-Asn-Tyr-Thr-Arg-Leu-Arg-Lys-Gln) (SEQ ID NO: 35), VIP(4-20) (Ala-Val-Phe-Thr-Asp-Asn-Tyr-Thr-Arg-Leu-Arg-Lys-Gln-Met-Ala-Val-Lys) (SEQ ID NO: 39), VIP(4-24) ([…] (SEQ ID NO: 43), VIP(4-28) ([…] (SEQ ID NO: 90), VIP(6-10) (Phe-Thr-Asp-Asn-Tyr) (SEQ ID NO: 66), VIP(6-12) (Phe-Thr-Asp-Asn-Tyr-Thr-Arg) (SEQ ID NO: 68), VIP(6-16) (Phe-Thr-Asp-Asn-Tyr-Thr-Arg-Leu-Arg-Lys-Gln) (SEQ ID NO: 72), VIP(6-20) (Phe-Thr-Asp-Asn-Tyr-Thr-Arg-Leu-Arg-Lys-Gln-Met-Ala-Val-Lys) (SEQ ID NO: 76), VIP(6-24) (Phe-Thr-Asp-Asn-Tyr-Thr-Arg-Leu-Arg-Lys-Gln-Met-Ala-Val-Lys-Lys-Tyr-Leu-Asn) (SEQ ID NO: 80), VIP(6-28) ([…] (SEQ ID NO: 84), VIP(16-20) (Gln-Met-Ala-Val-Lys) (SEQ ID NO: 20), VIP(16-24) (Gln-Met-Ala-Val-Lys-Lys-Tyr-Leu-Asn) (SEQ ID NO: 93), VIP(16-28) (Gln-Met-Ala-Val-Lys-Lys-Tyr-Leu-Asn-Ser-Ile-Leu-Asn) (SEQ ID NO: 88), VIP(1-12) (His-Ser-Asp-Ala-Val-Phe-Thr-Asp-Asn-Tyr-Thr-Arg) (SEQ ID NO: 91) and VIP(10-28) (Tyr-Thr-Arg-Leu-Arg-Lys-Gln-Met-Ala-Val-Lys-Lys-Tyr-Leu-Asn-Ser-Ile-Leu-Asn) (SEQ ID NO: 92), VIP(4-10) (Ala-Val-Phe-Thr-Asp-Asn-Tyr) (SEQ ID NO: 29).
Each peptide was infused at 5 pmol/kg/min
Blood pressure was measured by tail cuff plethysmography twice weekly for 4 weeks.
Turning to AVFTDNYTR [VIP(4-12)], the “reduction in systolic blood pressure (SBP) relative to the control solution” value was “significant reductions in SBP”.

In the case of AVFTDNYTRLRKQ [VIP(4-16)], the “reduction in systolic blood pressure (SBP) relative to the control solution” value is recorded as “significant reductions in SBP”.

As for AVFTDNYTRLRKQMAVK [VIP(4-20)], the “reduction in systolic blood pressure (SBP) relative to the control solution” value is “significant reductions in SBP”.

As for AVFTDNYTRLRKQMAVKKYLN [VIP(4-24)], the “reduction in systolic blood pressure (SBP) relative to the control solution” value is “significant reductions in SBP”.

As to AVFTDNYTRLRKQMAVKKYLNSILN [VIP(4-28)], the “reduction in systolic blood pressure (SBP) relative to the control solution” value is recorded as “significant reductions in SBP”.

As to FTDNYTRLRKQMAVK [VIP(6-20)], the “reduction in systolic blood pressure (SBP) relative to the control solution” value is recorded as “significant reductions in SBP”.

FTDNYTRLRKQMAVKKYLN [VIP(6-24)]: the “reduction in systolic blood pressure (SBP) relative to the control solution” value is recorded as “significant reductions in SBP”.

On to “His-Ser-Asp-Ala-Val-Phe-Thr-Asp-Asn-Tyr-Thr-Arg-Leu-Arg-Lys-Gln-Met-Ala-Val-Lys-Lys-Tyr-Leu-Asn-Ser-Ile-Leu-Asn (HSDAVFTDNYTRLRKQMAVKKYLNSILN; listed as Homo sapiens) [VIP, reference compound]”, for which the “reduction in systolic blood pressure (SBP) relative to the control solution” value is listed as “not seen to have any significant effect in reducing SBP”.

With “Phe-Thr-Asp-Asn-Tyr-Thr-Arg-Leu-Arg-Lys-Gln-Met-Ala-Val-Lys-Lys-Tyr-Leu-Asn-Ser-Ile-Leu-Asn (FTDNYTRLRKQMAVKKYLNSILN; listed as Homo sapiens) [VIP(6-28), VIP fragment described earlier in PCT/AU2005/000835, not included in the present invention, reference compound]”, the “reduction in systolic blood pressure (SBP) relative to the control solution” value is listed as “significant reductions in SBP”.

The same test, now with this note: SHR on high salt diet, 5 pmol/kg/min for 4 weeks, FIG. 6.
In the case of AVFTDNYTRLRKQ [VIP(4-16)], the “relative efficacy in reducing SBP compared with VIP(4-12) and VIP(4-20)” value is “less efficacious”.

The subject of another test is myocardial fibrosis.
Experiment: not given
The note with it: disclosed in PCT/AU2005/000835; cited from earlier work.
On to “Phe-Thr-Asp-Asn-Tyr-Thr-Arg-Leu-Arg-Lys-Gln-Met-Ala-Val-Lys-Lys-Tyr-Leu-Asn-Ser-Ile-Leu-Asn (FTDNYTRLRKQMAVKKYLNSILN; listed as Homo sapiens) [VIP(6-28), VIP fragment described earlier in PCT/AU2005/000835, not included in the present invention, reference compound]”, for which the “effectiveness for preventing myocardial fibrosis” value is reported as “effective for preventing myocardial fibrosis”.
